The text below walks through data of patent US20260248920A1, “COMPOSITION FOR PREVENTING OR TREATING INFLAMMATORY DISEASES, CONTAINING POLY(ORGANOPHOSPHAZENE) POLYMER” (KOREA INSTITUTE OF SCIENCE AND TECHNOLOGY, priority 2022, published 2026).

Usually half-life stands for how long it takes for the measured level to halve.

Where two headings read alike, the source gives them in different places.

For data set [1] the following is noted: cited from earlier work.
For data set [2] the following is noted: in vivo; cited from earlier work.
The test system of data set [3] is anti-inflammatory cytokines IL-4 and IL-10. The experiment in a line: RT-PCR of blood in defective Achilles tendon model: anti-inflammatory cytokines. The class given is in vivo, mice. As to conditions: 4 weeks.
Data set [4] concerns defective Achilles tendon model. The experiment in a line: Hydroxyproline content analysis of tendon tissue. The class given is in vivo, mouse. Here is the method: All experiments using mice were conducted in compliance with the relevant laws and institutional guidelines of the Institutional Animal Care and Use Committee (IACUC) of Korea University Medical Center and received IACUC approval (Approval No. KOREA-2018-0049). […] […] 1 mg) and […] […] To hydrolyze the tendon tissue, 5 mg was immersed in a 6N HCl solution and then heated at 120° C. for 3 hours. After hydrolysis, the tendon tissue was centrifuged at 3000 rpm for 3 minutes, and the supernatant was collected and transferred to a 96-well plate. Thereafter, the 96-well plate was incubated in a dry oven at 60° C. for 12 hours. A Chloramine T reagent (6 μL) was mixed with an oxidation buffer (94 μL), and the mixture was added to each sample or a standard solution. The resulting solution was slowly transferred to a 96-well plate, and a p-dimethylaminobenzaldehyde reagent (100 μL) was added to each sample or standard, and then incubated at 60° C. for 90 minutes. The hydroxyproline content was measured at an optical density of […] using a Flash Multimode Reader (VarioskanTM, Thermo Scientific, USA).

Data set [5] has the same test system. The experiment in a line: Biomechanical test of Achilles tendon (stiffness, tensile strength). It is filed as in vivo, rats.

Regarding `CC1(C)O[C@@H]2C[C@H]3[C@@H]4CCC5=CC(=O)C=C[C@]5(C)[C@@]4(F)[C@@H](O)C[C@]3(C)[C@]2(C(=O)CO)O1` [TCA, triamcinolone acetonide], in data set [1] (in vivo), the half-life is 1.47 h. Moreover, the “half-life of TCA without a delivery carrier” value in data set [2] was 1.27 h.
As for `O=C(O)Cc1ccccc1Nc1c(Cl)cccc1Cl` [diclofenac], the half-life in data set [1] (direct IA administration, reported by Larsen et al.) was 5.2 h.
For the compound `Cc1ccc(-c2cc(C(F)(F)F)nn2-c2ccc(S(N)(=O)=O)cc2)cc1` [CXB, Celecoxib], the “IL-4 expression increase compared with control group” value in data set [3] (treated once) was found to be 1.2 fold; in data set [3] (treated three times) it was 1.3 fold. The entries for the “IL-10 expression increase compared with control group” value in data set [3] (treated once) and in data set [3] (treated three times) were 1.3 fold and 1.5 fold, respectively. In addition, the values for the hydroxyproline content in data set [4] (injected once per week) and in data set [4] (injected three times per week) were 15.3 µg/mg and 17.2 µg/mg, respectively. For the same compound, the stiffness was 16.4 N/mm in data set [5] (injected once per week) and 18.6 N/mm in data set [5] (injected three times per week). This compound also returned a tensile strength in data set [5] (injected once per week) of 12.5 MPa.
